Experiments:
Format in all cases: in vivo
Veronica persica [1] = assay: Pre-emergence herbicide efficacy at 320 g/ha, VERPE; conditions: scored visually after about 3 weeks vs untreated controls, 100% = plants have died
Description: (§1) Unwanted plants/weeds: • ABUTH: Abutilon theophrasti • ALOMY: Alopecurus myosuroides • AMARE: Amaranthus retroflexus • DIGSA: Digitaria sanguinalis • ECHCG: Echinochloa crus-galli • KCHSC: Kochia scoparia • LOLRI: Lolium rigidum • MATIN: Matricaria inodora • POAAN: Poa annua • POLCO: Polygonum convolvulus • SETVI: Setaria viridis • STEME: Stellaria media • VERPE: Veronica persica • VIOTR: Viola tricolor A. Post-Emergence Herbicidal Efficacy at 320 g/ha
(§2) Seeds of mono- and dicotyledonous weed plants were placed in plastic pots in sandy loam soil (doubly sown with one species each of mono- or dicotyledonous weed plants per pot) and covered with soil. The compounds of the invention, formulated in the form of wettable powders (WP) or as emulsion concentrates (EC), were then applied to the surface of the covering soil as aqueous suspension or emulsion with addition of 0.5% additive at a water application rate of 600 litres per hectare (converted). After the treatment, the pots were placed in a greenhouse and kept under good growth conditions for the test plants. After about 3 weeks, the efficacy of the preparations was scored visually in comparison with untreated controls as percentages.
(§3) For example, 100% activity=the plants have died, 0% activity=like control plants.
(§4) Tables C1 to C12 below show the effects of selected compounds of the general formula (I) according to Table 1 on various harmful plants and at an application rate corresponding to 320 g/ha, which were obtained by the trial procedure specified above.

Abutilon theophrasti [2] = assay: Post-emergence herbicidal efficacy at 320 g/ha, ABUTH; conditions: rated visually after about 3 weeks vs untreated controls, 100% = plants have died
Description: as §1
(§5) Seeds of mono- and dicotyledonous weed plants were placed in plastic pots in sandy loam soil (doubly sown with in each case one species of mono- or dicotyledonous weed plants per pot), covered with soil and cultivated in a greenhouse under controlled growth conditions. 2 to 3 weeks after sowing, the test plants were treated at the one-leaf stage. The compounds of the invention, formulated in the form of wettable powders (WP) or as emulsion concentrates (EC), were applied to the green parts of the plants as aqueous suspension or emulsion with addition of 0.5% additive at a water application rate equivalent to 600 litres per hectare. After the test plants had been kept in the greenhouse under optimum growth conditions for about 3 weeks, the activity of the preparations was rated visually in comparison to untreated controls.
as §3
(§6) Tables A1 to A10 below show the effects of selected compounds of the general formula (I) according to Table 1 on various harmful plants and at an application rate corresponding to 320 g/ha, which were obtained by the trial procedure specified above.

Amaranthus retroflexus [3] = assay: Pre-emergence herbicide efficacy at 320 g/ha, AMARE; conditions: scored visually after about 3 weeks vs untreated controls, 100% = plants have died
Description: as §1, §2, §3, §4

Kochia scoparia [4] = assay: Pre-emergence herbicide efficacy at 320 g/ha, KCHSC; conditions: scored visually after about 3 weeks vs untreated controls, 100% = plants have died
Description: as §1, §2, §3, §4

Setaria viridis [5] = assay: Post-emergence herbicidal efficacy at 320 g/ha, SETVI; conditions: rated visually after about 3 weeks vs untreated controls, 100% = plants have died
Description: as §1, §5, §3, §6

Digitaria sanguinalis [6] = assay: Pre-emergence herbicide efficacy at 320 g/ha, DIGSA; conditions: scored visually after about 3 weeks vs untreated controls, 100% = plants have died
Description: as §1, §2, §3, §4

Amaranthus retroflexus [7] = assay: Post-emergence herbicidal efficacy at 320 g/ha, AMARE; conditions: rated visually after about 3 weeks vs untreated controls, 100% = plants have died
Description: as §1, §5, §3, §6

Kochia scoparia [8] = assay: Post-emergence herbicidal efficacy at 320 g/ha, KCHSC; conditions: rated visually after about 3 weeks vs untreated controls, 100% = plants have died
Description: as §1, §5, §3, §6

Veronica persica [9] = assay: Post-emergence herbicidal efficacy at 320 g/ha, VERPE; conditions: rated visually after about 3 weeks vs untreated controls, 100% = plants have died
Description: as §1, §5, §3, §6

Stellaria media [10] = assay: Post-emergence herbicidal efficacy at 320 g/ha, STEME; conditions: rated visually after about 3 weeks vs untreated controls, 100% = plants have died
Description: as §1, §5, §3, §6

Poa annua [11] = assay: Post-emergence herbicidal efficacy at 320 g/ha, POAAN; conditions: rated visually after about 3 weeks vs untreated controls, 100% = plants have died
Description: as §1, §5, §3, §6

Setaria viridis [12] = assay: Pre-emergence herbicide efficacy at 320 g/ha, SETVI; conditions: scored visually after about 3 weeks vs untreated controls, 100% = plants have died
Description: as §1, §2, §3, §4

Stellaria media [13] = assay: Pre-emergence herbicide efficacy at 320 g/ha, STEME; conditions: scored visually after about 3 weeks vs untreated controls, 100% = plants have died
Description: as §1, §2, §3, §4

Matricaria inodora [14] = assay: Pre-emergence herbicide efficacy at 320 g/ha, MATIN; conditions: scored visually after about 3 weeks vs untreated controls, 100% = plants have died
Description: as §1, §2, §3, §4

Poa annua [15] = assay: Pre-emergence herbicide efficacy at 320 g/ha, POAAN; conditions: scored visually after about 3 weeks vs untreated controls, 100% = plants have died
Description: as §1, §2, §3, §4

Echinochloa crus-galli [16] = assay: Post-emergence herbicidal efficacy at 80 g/ha, ECHCG; conditions: rated visually after about 3 weeks vs untreated controls, 100% = plants have died
Description: as §1
(§7) Seeds of monocotyledonous and dicotyledonous weeds and crop plants were placed in sandy loam in plastic or organic planting pots, covered with soil and cultivated in a greenhouse under controlled growth conditions. 2 to 3 weeks after sowing, the test plants were treated at the one-leaf stage. The compounds of the invention, formulated in the form of wettable powders (WP) or as emulsion concentrates (EC), were then sprayed onto the green parts of the plants as aqueous suspension or emulsion with addition of 0.5% additive at a water application rate of 600 l/ha (converted). After the test plants had been kept in the greenhouse under optimum growth conditions for about 3 weeks, the activity of the preparations was rated visually in comparison to untreated controls. For example, 100% activity=the plants have died, 0% activity=like control plants.
(§8) Tables B1 to B11 below show the effects of selected compounds of the general formula (I) according to Table 1 on various harmful plants and an application rate corresponding to 80 g/ha, which were obtained by the experimental procedure mentioned above.

Veronica persica [17] = assay: Post-emergence herbicidal efficacy at 80 g/ha, VERPE; conditions: rated visually after about 3 weeks vs untreated controls, 100% = plants have died
Description: as §1, §7, §8

Abutilon theophrasti [18] = assay: Pre-emergence herbicide efficacy at 80 g/ha, ABUTH; conditions: scored visually after about 3 weeks vs untreated controls, 100% = plants have died
Description: as §1
(§9) Seeds of monocotyledonous and dicotyledonous weed plants and crop plants were placed in plastic or organic planting pots and covered with soil. The compounds of the invention, formulated in the form of wettable powders (WP) or as emulsion concentrates (EC), were then applied to the surface of the covering soil as aqueous suspension or emulsion with addition of 0.5% additive at a water application rate equivalent to 600 l/ha. After the treatment, the pots were placed in a greenhouse and kept under good growth conditions for the test plants. After about 3 weeks, the efficacy of the preparations was scored visually in comparison with untreated controls as percentages. For example, 100% activity=the plants have died, 0% activity=like control plants.
(§10) Tables D1 to D12 below show the effects of selected compounds of the general formula (I) according to Table 1 on various harmful plants and an application rate corresponding to 80 g/ha, which were obtained by the experimental procedure mentioned above.

Veronica persica [19] = assay: Pre-emergence herbicide efficacy at 80 g/ha, VERPE
Description: as §1, §9, §10

Polygonum convolvulus = assay: Pre-emergence herbicide efficacy at 80 g/ha, POLCO; conditions: scored visually after about 3 weeks vs untreated controls, 100% = plants have died
Description: as §1, §9, §10

Kochia scoparia [20] = assay: Pre-emergence herbicide efficacy at 80 g/ha, KCHSC; conditions: scored visually after about 3 weeks vs untreated controls, 100% = plants have died
Description: as §1, §9, §10

Echinochloa crus-galli [21] = assay: Pre-emergence herbicide efficacy at 80 g/ha, ECHCG; conditions: scored visually after about 3 weeks vs untreated controls, 100% = plants have died
Description: as §1, §9, §10

Amaranthus retroflexus [22] = assay: Pre-emergence herbicide efficacy at 80 g/ha, AMARE; conditions: scored visually after about 3 weeks vs untreated controls, 100% = plants have died
Description: as §1, §9, §10

Amaranthus retroflexus [23] = assay: Post-emergence herbicidal efficacy at 80 g/ha, AMARE; conditions: rated visually after about 3 weeks vs untreated controls, 100% = plants have died
Description: as §1, §7, §8

Viola tricolor [24] = assay: Post-emergence herbicidal efficacy at 80 g/ha, VIOTR; conditions: rated visually after about 3 weeks vs untreated controls, 100% = plants have died
Description: as §1, §7, §8

Digitaria sanguinalis [25] = assay: Pre-emergence herbicide efficacy at 80 g/ha, DIGSA; conditions: scored visually after about 3 weeks vs untreated controls, 100% = plants have died
Description: as §1, §9, §10

Matricaria inodora [26] = assay: Pre-emergence herbicide efficacy at 80 g/ha, MATIN; conditions: scored visually after about 3 weeks vs untreated controls, 100% = plants have died
Description: as §1, §9, §10

Viola tricolor [27] = assay: Pre-emergence herbicide efficacy at 80 g/ha, VIOTR
Description: as §1, §9, §10

COCc1cnn(-c2c(C#N)cccc2Nc2ncc(Cl)cn2)c1 [Example 1-68]
90%: Pre-emergence efficacy at 320 g/ha against VERPE in % (Veronica persica [1]) | Post-emergence efficacy at 320 g/ha against ABUTH in % (Abutilon theophrasti [2]) | Post-emergence efficacy at 320 g/ha against SETVI in % (Setaria viridis [5])
100%: Pre-emergence efficacy at 320 g/ha against AMARE in % (Amaranthus retroflexus [3]) | Pre-emergence efficacy at 320 g/ha against KCHSC in % (Kochia scoparia [4]) | Pre-emergence efficacy at 320 g/ha against DIGSA in % (Digitaria sanguinalis [6]) | Post-emergence efficacy at 320 g/ha against AMARE in % (Amaranthus retroflexus [7]) | Post-emergence efficacy at 320 g/ha against KCHSC in % (Kochia scoparia [8]) | Post-emergence efficacy at 320 g/ha against VERPE in % (Veronica persica [9]) | Post-emergence efficacy at 320 g/ha against STEME in % (Stellaria media [10])

N#Cc1cccc(Nc2ncc(Cl)cn2)c1Cc1ccc(F)cc1 [Example 1-23]
100%: Pre-emergence efficacy at 320 g/ha against AMARE in % (Amaranthus retroflexus [3]) | Post-emergence efficacy at 320 g/ha against POAAN in % (Poa annua [11]) | Post-emergence efficacy at 320 g/ha against AMARE in % (Amaranthus retroflexus [7]) | Pre-emergence efficacy at 320 g/ha against SETVI in % (Setaria viridis [12]) | Pre-emergence efficacy at 320 g/ha against MATIN in % (Matricaria inodora [14]) | Post-emergence efficacy at 320 g/ha against VERPE in % (Veronica persica [9]) | Post-emergence efficacy at 320 g/ha against STEME in % (Stellaria media [10]) | Pre-emergence efficacy at 320 g/ha against POAAN in % (Poa annua [15])
90%: Pre-emergence efficacy at 320 g/ha against VERPE in % (Veronica persica [1]) | Pre-emergence efficacy at 320 g/ha against DIGSA in % (Digitaria sanguinalis [6]) | Pre-emergence efficacy at 320 g/ha against STEME in % (Stellaria media [13])

Cc1cnc(Nc2cccc(C#N)c2-n2cc(C(F)(F)F)cn2)nc1 [Example 1-39]
80%: Post-emergence efficacy at 80 g/ha against ECHCG in % (Echinochloa crus-galli [16]) | Post-emergence efficacy at 80 g/ha against AMARE in % (Amaranthus retroflexus [23]) | Post-emergence efficacy at 80 g/ha against VIOTR in % (Viola tricolor [24])
100%: Pre-emergence efficacy at 80 g/ha against ABUTH in % (Abutilon theophrasti [18]) | Pre-emergence efficacy at 80 g/ha against ECHCG in % (Echinochloa crus-galli [21]) | Pre-emergence efficacy at 80 g/ha against AMARE in % (Amaranthus retroflexus [22]) | Pre-emergence efficacy at 80 g/ha against DIGSA in % (Digitaria sanguinalis [25]) | Pre-emergence efficacy at 80 g/ha against MATIN in % (Matricaria inodora [26]) | Pre-emergence efficacy against VIOTR (Viola tricolor [27])
90%: Post-emergence efficacy at 80 g/ha against VERPE in % (Veronica persica [17]) | Pre-emergence efficacy against VERPE (Veronica persica [19]) | Pre-emergence efficacy at 80 g/ha against POLCO in % (Polygonum convolvulus) | Pre-emergence efficacy at 80 g/ha against KCHSC in % (Kochia scoparia [20])
